Patent publication US20260200947A1, “FUSED CYCLIC COMPOUNDS AND USE THEREOF” (Jacobio Pharmaceuticals Co., Ltd., priority 2022, published 2026)
Where two headings read alike, the source gives them in different places.

Columns and labels:
GDP-KRAS G12D [1] = molecular target: T1, GDP-KRAS G12D (Homo sapiens, UniProt P01116, G12D); test: SOS1 catalyzed nucleotide exchange assay, GDP-KRAS G12D; settings: read-out: Biochemical assays, IC50, KRAS G12D GDP, GDP form K-Ras G12D, TR-FRET
GDP-KRAS G12V [2] = molecular target: T2, GDP-KRAS G12V (Homo sapiens, UniProt P01116, G12V); test: SOS1 catalyzed nucleotide exchange assay, GDP-KRAS G12V; settings: read-out: Biochemical assays, IC50, KRAS G12V GDP, GDP form K-Ras G12V, TR-FRET
T2 sequence (P01116 1-169 isoform P01116-2 G12V): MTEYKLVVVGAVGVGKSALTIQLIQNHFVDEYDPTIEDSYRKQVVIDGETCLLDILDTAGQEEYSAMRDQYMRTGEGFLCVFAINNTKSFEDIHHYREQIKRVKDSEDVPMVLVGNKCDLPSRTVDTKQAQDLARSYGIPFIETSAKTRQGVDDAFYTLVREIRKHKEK

GppNp-KRAS G12V [3] = molecular target: T3, GppNp-KRAS G12V (Homo sapiens, UniProt P01116, G12V); test: GTP-K-Ras and cRAF interaction assay, GppNp-KRAS G12V; settings: read-out: Biochemical assays, IC50, KRAS G12V GppNp; GppNp-loaded K-Ras G12V, cRAF RBD interaction, HTRF
T3 sequence (P01116 1-169 isoform P01116-2 G12V): as above

SW620 cells (K-Ras G12V) [4] = tested on: SW620 cells (K-Ras G12V)
Protocol: (§1) Each of cells in culture medium was plated in TC-treated 96-well plates at a density indicated in Table 4 and incubated in a cell incubator overnight. The next day, each of compounds was diluted in culture medium and added to the plates. After 6 days incubation in cell incubator, the cell viability was detected by CellTiter-Glo® Cell Viability Assay kit (Promega).

SW620 cells (K-Ras G12V) [5] = test: Phospho-ERK1/2(THR202/TYR204) HTRF assay, SW620; format: cell-based; settings: read-out: pERK, IC50, SW620
Protocol: (§2) Each of cells in culture medium was seeded in 96-well plates at density indicated in Table 4 and put in a cell incubator to incubate overnight. The next day, the culture medium was removed and the compound diluted in assay medium was added in each well. […] 10 μL of cell lysates from the 96-well plates were transferred to a 384-well plate (Greiner) containing 2.5 μL/well HTRF® pre-mixed antibodies (Cisbio 64AERPEH). The plate was incubated 4 hours at 25° C. and read HTRF signals on Tecan Spark multimode microplate reader. The data were analyzed using a 4-parameter logistic model to calculate IC50 values.

GppNp-KRAS G12D [6] = molecular target: T4, GppNp-KRAS G12D (Homo sapiens, UniProt P01116, G12D); test: GTP-K-Ras and cRAF interaction assay, GppNp-KRAS G12D; settings: read-out: Biochemical assays, IC50, KRAS G12D GppNp; GppNp-loaded K-Ras G12D, cRAF RBD interaction, HTRF
T4 sequence (P01116 1-169 isoform P01116-2 G12D): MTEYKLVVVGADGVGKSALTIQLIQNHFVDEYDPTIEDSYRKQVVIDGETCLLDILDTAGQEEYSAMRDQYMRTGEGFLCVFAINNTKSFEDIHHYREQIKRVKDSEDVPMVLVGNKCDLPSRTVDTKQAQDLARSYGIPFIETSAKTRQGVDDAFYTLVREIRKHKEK

[7] = tested on: AsPC-1 cells (K-Ras G12D)
Protocol: as §1

[8] = tested on: Capan-2 cells (K-Ras G12V)
Protocol: as §2

[9] = Mouse pharmacokinetic study; format: in vivo; settings: Balb/c mouse (female); for AUC0-24 h / Cl_obs / Cmax: plasma; for F: 10 mg/kg po vs 3 mg/kg iv
Protocol: The purpose of this study was to evaluate the pharmacokinetic properties of compounds in Balb/c mouse (female) following single dose administration. Six mice were needed for each compound and the six mice were divided into two groups (n=3/group), group A and group B. Mice in group A were treated with a single 3 mg/kg dose of compound (iv). Mice in group B were treated with a single 10 mg/kg dose of compound (po). Foreach mouse in group A, blood samples were collected at the time point of 0.083 h 0.5 h, 1 h, 2 h, 4 h, 8 h and 24 h post-dose. For each mouse in group B, blood samples were collected at the time point of 0.25 h, 0.5 h, 1 h, 2 h, 4 h, 8 h and 24 h post-dose. Blood samples were placed on ice until centrifugation to obtain plasma samples. The plasma samples were stored at −80° C. until analysis. The concentration of compound in plasma samples was determined using a LC-MS/MS method.

AGS cells (K-Ras G12D) [10] = tested on: AGS cells (K-Ras G12D)
Protocol: as §1

GppNp-KRAS G12V [11] = molecular target: T3, GppNp-KRAS G12V; test: biochemical
GppNp-KRAS G12D [12] = molecular target: T4, GppNp-KRAS G12D; test: biochemical
GDP-KRAS G12D [13] = molecular target: T1, GDP-KRAS G12D; test: biochemical
GDP-KRAS G12V [14] = molecular target: T2, GDP-KRAS G12V; test: biochemical
AGS cells (K-Ras G12D) [15] = tested on: AGS cells (K-Ras G12D); remark: listed apart in the source
Protocol: as §2

[16] = Homo sapiens, SW-620, 2 hours incubation

T1 sequence (P01116 1-169 isoform P01116-2 G12D): as above

SMILES | IC50 (GDP-KRAS G12D [1]) | IC50 (GDP-KRAS G12V [2]) | IC50 (GppNp-KRAS G12V [3]) | IC50 (SW620 cells (K-Ras G12V) [4]) | IC50 (SW620 cells (K-Ras G12V) [5]; 2 hours incubation) | IC50 (GppNp-KRAS G12D [6]) | IC50 [7] | IC50 [8] | AUC0-24 h ([9]; 3 mg/kg, iv) | Cl_obs ([9]; 3 mg/kg, iv) | F [9] | AUC0-24 h ([9]; 10 mg/kg, po) | Cmax ([9]; 10 mg/kg, po) | IC50 (AGS cells (K-Ras G12D) [10]) | IC50 (GppNp-KRAS G12V [11]) | IC50 (GppNp-KRAS G12D [12]) | IC50 (GDP-KRAS G12D [13]) | IC50 (GDP-KRAS G12V [14]) | IC50 (SW620 cells (K-Ras G12V) [5]; [16]) | IC50 (AGS cells (K-Ras G12D) [15])
C#Cc1c(F)ccc2cc(N)cc(-c3c(Cl)c4c5c(nc(OCC67CCCN6CC(F)C7)nc5c3F)N3CCCOCC3CO4)c12 (single isomer, unassigned) [Compound 11B] | 5.69 nM | 3.92 nM | 311 nM | 117 nM | 53.5 nM | 233 nM | 806 nM | – | – | – | – | – | – | – | – | – | – | – | – | –
N#Cc1c(N)sc2c(F)ccc(-c3c(Cl)c4c5c(nc(OCC67CCCN6CC(F)C7)nc5c3F)N3CCCOCC3CO4)c12 (single isomer, unassigned) [Compound 66B] | 0.983 nM | 0.924 nM | 8.62 nM | 2.22 nM | – | 4.06 nM | 5.91 nM | 1.94 nM | 8951 ng·h/mL | 5.77 mL/min/kg | 10.8% | 3217 ng·h/mL | 1175 ng/mL | – | – | – | – | – | – | –
C#Cc1c(F)ccc2cc(N)cc(-c3nc4c5c(nc(OC[C@@]67CCCN6C[C@H](F)C7)nc5c3F)N3CC(C)COCC3N4C)c12 (single isomer, unassigned) [Compound 103] | 3.45 nM | 1.79 nM | 101 nM | 14.5 nM | 10.1 nM | 214 nM | 180 nM | – | – | – | – | – | – | – | – | – | – | – | – | –
CSc1cccc2cc(O)cc(-c3nc4c5c(nc(OC[C@@]67CCCN6C[C@H](F)C7)nc5c3F)N3CCCOC[C@H]3N4C)c12 [Compound 20] | – | – | – | 24.4 nM | – | – | 110 nM | 10.3 nM | – | – | – | – | – | 22.1 nM | – | – | – | – | – | –
C#Cc1c(F)ccc2cc(N)cc(-c3nc4c5c(nc(OCC67CCCN6CC(F)C7)nc5c3F)N3CCCCCC3CO4)c12 (stereo not shown) [Compound 27B] | 2.51 nM | 2.69 nM | 563 nM | 16.9 nM | 12.4 nM | 174 nM | 110 nM | – | – | – | – | – | – | – | – | – | – | – | – | –
C#Cc1c(F)ccc2cc(N)cc(-c3nc4c5c(nc(OC[C@@]67CCCN6C[C@H](F)C7)nc5c3F)N3[C@@H](COCC[C@@H]3C)CO4)c12 [Compound 38A] | 0.46 nM | 0.292 nM | 75.6 nM | 2.64 nM | 0.648 nM | 51.9 nM | 28.7 nM | – | 4004 ng·h/mL | 12.7 mL/min/kg | 39.1% | 5213 ng·h/mL | 971 ng/mL | – | – | – | – | – | – | –
C#Cc1c(F)ccc2cc(N)cc(-c3nc4c5c(nc(OCC67CCCN6CC(F)C7)nc5c3F)N3C(C)CCOCC3CO4)c12 (stereo not shown) [Compound 38B] | 1.05 nM | 0.397 nM | 685 nM | 5.47 nM | 2.59 nM | 174 nM | 61.3 nM | – | – | – | – | – | – | – | – | – | – | – | – | –
[2H]C([2H])([2H])N1c2nc(-c3cc(N)cc4ccc(F)c(C#C)c34)c(F)c3nc(OC[C@@]45CCCN4C[C@H](F)C5)nc(c23)N2CCCOC[C@H]21 [Compound 48] | – | – | – | 2.55 nM | – | – | 26.6 nM | 1.65 nM | – | – | – | – | – | 3.44 nM | 55.4 nM | 35.8 nM | 0.759 nM | 0.595 nM | 3.68 nM | 3.53 nM
C#Cc1c(F)ccc2cc(N)cc(-c3nc4c5c(nc(OCC67CCCN6CC(F)C7)nc5c3F)N3C(C(F)F)CCOCC3N4C)c12 (stereo not shown) [Compound 52B] | 3.25 nM | 1.97 nM | 622 nM | 29.5 nM | – | 302 nM | 111 nM | 2.01 nM | – | – | – | – | – | – | – | – | – | – | – | –
C#Cc1c(F)ccc2cc(N)cc(-c3nc4c5c(nc(OC[C@@]67CCCN6C[C@H](F)C7)nc5c3F)N3CCCOCC3N4CCC(F)(F)F)c12 (stereo partly shown) [Compound 104] | – | – | – | – | – | – | – | – | – | – | – | – | – | – | > 1000 nM | > 1000 nM | 9.19 nM | 17.6 nM | – | 485 nM
C#Cc1c(F)ccc2cc(N)cc(-c3nc4c5c(nc(OC[C@@]67CCCN6C[C@H](F)C7)nc5c3F)N3CCC=C[C@H](F)[C@H]3N4C)c12 [Compound 108A] | 3.32 nM | 2.95 nM | 214 nM | 15.8 nM | – | 106 nM | 62.7 nM | 8.81 nM | – | – | – | – | – | – | – | – | – | – | – | –
C#Cc1c(F)ccc2cc(N)cc(-c3nc4c5c(nc(OC[C@@]67CCCN6C[C@H](F)C7)nc5c3F)N3CCCOCC3N4)c12 (stereo partly shown) [Compound 113] | – | – | – | 45.4 nM | – | – | 587 nM | – | – | – | – | – | – | 35.1 nM | 513 nM | 623 nM | 4.62 nM | 3.81 nM | 21.4 nM | 33.6 nM
C#Cc1c(F)ccc2cc(N)cc(-c3nc4c5c(nc(OC[C@@]67CCCN6C[C@H](F)C7)nc5c3F)N3[C@H]5COC[C@H]5COC[C@H]3N4C)c12 [Compound 123D] | – | – | – | – | – | – | – | 2.07 nM | – | – | – | – | – | – | – | – | – | – | – | 2.18 nM
C#Cc1c(F)ccc2cc(N)cc(-c3nc4c5c(nc(OCC67CC(=C)CN6CC(OC)C7)nc5c3F)N3CCCOCC3N4C)c12 (stereo not shown) [Compound 169] | 1.67 nM | 3.33 nM | 245 nM | 15.2 nM | – | 164 nM | 93.6 nM | 0.778 nM | – | – | – | – | – | – | – | – | – | – | – | –
